Residues, ends and D or L forms follow the SMILES beside them.
Key:
[1] = Stability of peptides in the serum (C18 reverse phase FPLC, MS); type: in vitro ADME, mice; conditions: mouse serum
Excerpt: Peptide stability in the serum was examined by the same method referring to the following documents Yoo S A, Bae D G, Ryoo J W, Kim H R, Park G S, et al. (2005) Arginine-rich antivascular endothelial growth factor (anti-VEGF) hexapeptide inhibits collageninduced arthritis and VEGF-stimulated productions of TNF-alpha and IL-6 by human monocytes. J Immunol 174: 5846-5855. Blood from mice was collected, and then serum was collected by centrifugation at 4[…], followed by filtration through 0.22 um-pore filter. […] The flow rate was 0.3 ml/min, and analyzed by C18 reverse phase FPLC using a linear gradient of 20% from 0 to 100% using acetonitrile through a linear graduation of 20% (Vydac protein and peptide C18, 0.1% trifluoroacetate in water for equilibration, and 0.1% trifluoroacetate in acetonitrile for elution) (Life Technologies, Carlsbad, Calif.). […]
It was examined whether higher levels of imaging signals by the cyclic form of ApoPep-1 compared with those of the linear form of ApoPep-1 was due to the difference in serum stability of peptides. After incubation of the linear or cyclic form of ApoPep-1 with mouse serum up to 24 hours, the amount of the peptide remaining in the serum was analyzed. […]

[2] = tested on: SNU-16 stomach tumor xenografts; assay: Anti-tumor treatment of mice: tumor volume, tumor weight, TUNEL staining; type: in vivo; conditions: cisplatin 5 mg/kg i.p. once per week, cetuximab 1.5 mg/kg i.p. twice per week, two weeks; measured over three weeks
Method: Eight-week old female athymic (nu/nu) Balb/c mice were purchased from Orient laboratories (Seongnam, Korea) and were housed under specific-pathogen-free (SPF) conditions with laboratory chow and water ad libitum. Stomach tumor xenografts were established by subcutaneously injecting 1×10^7 SNU-16 cells in 100 ml saline into the right flank. Tumors were allowed to reach 50-60 mm^3 of volume before randomization and initiation of treatment. […] In the present experiment, a total of two rounds of anticancer drug treatment were conducted for two weeks. Changes in tumor size were measured using an automatic caliper over three weeks. Tumor volumes were calculated using the formula: volume=(length×width×height)/2. Tumor weights were measured after isolation of tumor mass.
To examine anti-tumor growth effect by cisplatin or cetuximab alone and in combination, tumor volumes and weights after the drug treatment were measured.

Row | amount of peptide remaining in the serum (peak area) ([1]; 37 degrees, up to 24 hours) | presence of peptide in serum by MS after incubation ([1]; incubation for 24 hours, MS of FPLC peak) | Compound | tumor volume compared with control group treated without drug [2]
1 | not significantly changed | stably present | N=C(N)NCCC[C@H](NC(=O)[C@@H]1CCCN1C(=O)[C@@H]1CCCN1C(=O)[C@H](CCCNC(=N)N)NC(=O)[C@H](CCC(N)=O)NC(=O)[C@@H](N)CS)C(=O)O [linear form of ApoPep-1, CQRPPR, reference compound] (H-CQRPPR-OH; N-terminus and C-terminus assumed) | 
2 |  |  | N.N.[Cl][Pt][Cl] [cisplatin] | reduced tumor volumes

— patent US20170340698A1, “CYCLIC PEPTIDE SPECIFICALLY BINDING TO APOPTOTIC CELLS AND USE THEREOF” (KYUNGPOOK NATIONAL UNIVERSITY INDUSTRY-ACADEMIC COOPERATION …, priority 2014, published 2017)
